Assay results published in PubChem BioAssay (NCI).
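In this assay, cells in 96-well plates receive the compound at five concentrations for 48 hours. Endpoints are linearly interpolated between the surrounding concentrations. TGI marks complete inhibition of growth.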

Tests used:
Assay in all cases: NCI-60 cell line screen, 48 h
BT-549 breast = tested on: BT-549 breast
RXF 393 renal = tested on: RXF 393 renal
RPMI-8226 leukemia = tested on: RPMI-8226 leukemia
CAKI-1 renal = tested on: CAKI-1 renal
OVCAR-3 ovarian = tested on: OVCAR-3 ovarian
NCI/ADR-RES ovarian = tested on: NCI/ADR-RES ovarian
OVCAR-4 ovarian = tested on: OVCAR-4 ovarian
NCI-H226 lung = tested on: NCI-H226 lung
SW-620 colon = tested on: SW-620 colon
M14 melanoma = tested on: M14 melanoma
OVCAR-8 ovarian = tested on: OVCAR-8 ovarian
NCI-H522 lung = tested on: NCI-H522 lung
MDA-N = tested on: MDA-N
MOLT-4 leukemia = tested on: MOLT-4 leukemia
HCT-15 colon = tested on: HCT-15 colon
TK-10 renal = tested on: TK-10 renal
NCI-H23 lung = tested on: NCI-H23 lung
UACC-257 melanoma = tested on: UACC-257 melanoma
A549 NSCLC = tested on: A549 NSCLC
UACC-62 melanoma = tested on: UACC-62 melanoma
HCC-2998 colon = tested on: HCC-2998 colon
CCRF-CEM leukemia = tested on: CCRF-CEM leukemia
SF-268 CNS = tested on: SF-268 CNS
DU-145 prostate = tested on: DU-145 prostate
LOX IMVI melanoma = tested on: LOX IMVI melanoma
UO-31 renal = tested on: UO-31 renal
KM12 colon = tested on: KM12 colon
MDA-MB-435 = tested on: MDA-MB-435
MALME-3M melanoma = tested on: MALME-3M melanoma
MDA-MB-231 breast = tested on: MDA-MB-231 breast
EKVX NSCLC = tested on: EKVX NSCLC
T-47D breast = tested on: T-47D breast
U251 CNS = tested on: U251 CNS
SF-295 CNS = tested on: SF-295 CNS
A498 renal = tested on: A498 renal
SR leukemia = tested on: SR leukemia
HT29 colon = tested on: HT29 colon
NCI-H460 lung = tested on: NCI-H460 lung
PC-3 prostate = tested on: PC-3 prostate
OVCAR-5 ovarian = tested on: OVCAR-5 ovarian
SN12C renal = tested on: SN12C renal
HS 578T breast = tested on: HS 578T breast
SK-MEL-28 melanoma = tested on: SK-MEL-28 melanoma
K-562 leukemia = tested on: K-562 leukemia
ACHN renal = tested on: ACHN renal
HL-60(TB) leukemia = tested on: HL-60(TB) leukemia
SK-OV-3 ovarian = tested on: SK-OV-3 ovarian
786-0 renal = tested on: 786-0 renal
MCF7 breast = tested on: MCF7 breast
SK-MEL-2 melanoma = tested on: SK-MEL-2 melanoma
IGROV1 ovarian = tested on: IGROV1 ovarian
HOP-62 NSCLC = tested on: HOP-62 NSCLC
HOP-92 NSCLC = tested on: HOP-92 NSCLC
SNB-75 CNS = tested on: SNB-75 CNS
COLO 205 colon = tested on: COLO 205 colon
SK-MEL-5 melanoma = tested on: SK-MEL-5 melanoma
SF-539 CNS = tested on: SF-539 CNS
HCT-116 colon = tested on: HCT-116 colon
SNB-19 CNS = tested on: SNB-19 CNS

Which TGI (BT-549 breast) does the source give for `CCCCCNC1=CC(=O)c2ccccc2C1=O` here?
The TGI was 46 µM.

And the TGI (RXF 393 renal)?
Its TGI is 47.3 µM.

And the TGI (RPMI-8226 leukemia)?
The TGI was over 100 µM.

And the TGI (CAKI-1 renal)?
Its TGI is 80.6 µM.

What about the TGI (OVCAR-3 ovarian) of the same compound?
Its TGI is 65 µM.

And the TGI (NCI/ADR-RES ovarian)?
The TGI was over 100 µM.

And the TGI (OVCAR-4 ovarian)?
The TGI was over 100 µM.

And the TGI (NCI-H226 lung)?
Its TGI is over 82.5 µM.

What about the TGI (SW-620 colon) of the same compound?
The TGI was over 100 µM.

What about the TGI (M14 melanoma) of the same compound?
Its TGI is over 100 µM.

And the TGI (OVCAR-8 ovarian)?
The TGI was 51.8 µM.

And the TGI (NCI-H522 lung)?
Its TGI is 44.3 µM.

And the TGI (MDA-N)?
The TGI was over 100 µM.

And the TGI (MOLT-4 leukemia)?
The TGI was over 100 µM.

And the TGI (HCT-15 colon)?
Its TGI is over 100 µM.

And the TGI (TK-10 renal)?
The TGI was 52.3 µM.

What about the TGI (NCI-H23 lung) of the same compound?
The TGI was 58.3 µM.

And the TGI (UACC-257 melanoma)?
The TGI was over 100 µM.

What about the TGI (A549 NSCLC) of the same compound?
Its TGI is over 100 µM.

And the TGI (UACC-62 melanoma)?
Its TGI is over 100 µM.

And the TGI (HCC-2998 colon)?
The TGI was over 100 µM.

And the TGI (CCRF-CEM leukemia)?
The TGI was over 100 µM.

What about the TGI (SF-268 CNS) of the same compound?
Its TGI is over 77.1 µM.

What about the TGI (DU-145 prostate) of the same compound?
The TGI was over 100 µM.

What about the TGI (LOX IMVI melanoma) of the same compound?
Its TGI is over 57 µM.

And the TGI (UO-31 renal)?
The TGI was over 88.6 µM.

What about the TGI (KM12 colon) of the same compound?
Its TGI is over 100 µM.

What about the TGI (MDA-MB-435) of the same compound?
Its TGI is over 100 µM.

And the TGI (MALME-3M melanoma)?
Its TGI is over 95.3 µM.

What about the TGI (MDA-MB-231 breast) of the same compound?
The TGI was 44.3 µM.

And the TGI (EKVX NSCLC)?
Its TGI is over 100 µM.

What about the TGI (T-47D breast) of the same compound?
The TGI was over 82.6 µM.

What about the TGI (U251 CNS) of the same compound?
Its TGI is 34 µM.

And the TGI (SF-295 CNS)?
Its TGI is over 70.3 µM.

And the TGI (A498 renal)?
Its TGI is over 76.7 µM.

What about the TGI (SR leukemia) of the same compound?
Its TGI is over 100 µM.

And the TGI (HT29 colon)?
Its TGI is over 100 µM.

And the TGI (NCI-H460 lung)?
Its TGI is over 100 µM.

And the TGI (PC-3 prostate)?
The TGI was over 100 µM.

And the TGI (OVCAR-5 ovarian)?
The TGI was over 100 µM.

And the TGI (SN12C renal)?
The TGI was over 100 µM.

And the TGI (HS 578T breast)?
Its TGI is over 81.3 µM.

What about the TGI (SK-MEL-28 melanoma) of the same compound?
Its TGI is over 100 µM.

And the TGI (K-562 leukemia)?
The TGI was over 100 µM.

And the TGI (ACHN renal)?
Its TGI is over 100 µM.

And the TGI (HL-60(TB) leukemia)?
The TGI was over 62.6 µM.

What about the TGI (SK-OV-3 ovarian) of the same compound?
Its TGI is over 84.7 µM.

And the TGI (786-0 renal)?
Its TGI is 38.9 µM.

What about the TGI (MCF7 breast) of the same compound?
The TGI was over 100 µM.

And the TGI (SK-MEL-2 melanoma)?
The TGI was 53.6 µM.

What about the TGI (IGROV1 ovarian) of the same compound?
The TGI was over 100 µM.

And the TGI (HOP-62 NSCLC)?
Its TGI is 43.5 µM.

What about the TGI (HOP-92 NSCLC) of the same compound?
Its TGI is 59.1 µM.

And the TGI (SNB-75 CNS)?
Its TGI is 49.4 µM.

And the TGI (COLO 205 colon)?
The TGI was over 100 µM.

What about the TGI (SK-MEL-5 melanoma) of the same compound?
Its TGI is 77.8 µM.

What about the TGI (SF-539 CNS) of the same compound?
Its TGI is 41 µM.

What about the TGI (HCT-116 colon) of the same compound?
The TGI was over 61.7 µM.

What about the TGI (SNB-19 CNS) of the same compound?
Its TGI is 82.5 µM.

With `COc1cc(/C=N/NC2=NCCCN2)ccc1O` as the compound, how does the TGI (BT-549 breast) read?
Its TGI is over 100 µM.

And the TGI (RXF 393 renal)?
Its TGI is over 100 µM.

What about the TGI (RPMI-8226 leukemia) of the same compound?
The TGI was over 100 µM.

And the TGI (OVCAR-3 ovarian)?
The TGI was over 100 µM.

And the TGI (NCI/ADR-RES ovarian)?
Its TGI is over 100 µM.

What about the TGI (OVCAR-4 ovarian) of the same compound?
Its TGI is over 100 µM.

What about the TGI (NCI-H226 lung) of the same compound?
The TGI was over 100 µM.

And the TGI (SW-620 colon)?
The TGI was over 100 µM.

And the TGI (M14 melanoma)?
Its TGI is over 100 µM.

And the TGI (OVCAR-8 ovarian)?
The TGI was over 100 µM.

What about the TGI (NCI-H522 lung) of the same compound?
The TGI was over 100 µM.

What about the TGI (MDA-N) of the same compound?
Its TGI is over 100 µM.

What about the TGI (MOLT-4 leukemia) of the same compound?
The TGI was over 100 µM.

And the TGI (HCT-15 colon)?
Its TGI is over 100 µM.

And the TGI (TK-10 renal)?
The TGI was over 100 µM.

And the TGI (NCI-H23 lung)?
The TGI was over 100 µM.

And the TGI (UACC-257 melanoma)?
Its TGI is over 100 µM.

What about the TGI (A549 NSCLC) of the same compound?
Its TGI is over 100 µM.

What about the TGI (UACC-62 melanoma) of the same compound?
Its TGI is over 100 µM.

And the TGI (HCC-2998 colon)?
Its TGI is over 100 µM.

And the TGI (CCRF-CEM leukemia)?
The TGI was over 100 µM.

What about the TGI (SF-268 CNS) of the same compound?
Its TGI is over 100 µM.

What about the TGI (DU-145 prostate) of the same compound?
The TGI was over 100 µM.

And the TGI (LOX IMVI melanoma)?
Its TGI is over 100 µM.

And the TGI (UO-31 renal)?
Its TGI is over 100 µM.

What about the TGI (KM12 colon) of the same compound?
The TGI was over 100 µM.

What about the TGI (MDA-MB-435) of the same compound?
Its TGI is over 100 µM.

And the TGI (MALME-3M melanoma)?
Its TGI is over 100 µM.

And the TGI (MDA-MB-231 breast)?
The TGI was over 100 µM.

And the TGI (EKVX NSCLC)?
Its TGI is over 100 µM.

What about the TGI (T-47D breast) of the same compound?
The TGI was over 100 µM.

What about the TGI (U251 CNS) of the same compound?
The TGI was over 100 µM.

What about the TGI (SF-295 CNS) of the same compound?
Its TGI is over 100 µM.

What about the TGI (A498 renal) of the same compound?
The TGI was over 100 µM.

What about the TGI (SR leukemia) of the same compound?
The TGI was over 100 µM.

What about the TGI (HT29 colon) of the same compound?
The TGI was over 100 µM.

What about the TGI (NCI-H460 lung) of the same compound?
The TGI was over 100 µM.

And the TGI (PC-3 prostate)?
Its TGI is over 100 µM.

And the TGI (OVCAR-5 ovarian)?
The TGI was over 100 µM.

What about the TGI (SN12C renal) of the same compound?
Its TGI is over 100 µM.

And the TGI (HS 578T breast)?
Its TGI is over 100 µM.

What about the TGI (SK-MEL-28 melanoma) of the same compound?
Its TGI is over 100 µM.

What about the TGI (K-562 leukemia) of the same compound?
The TGI was over 100 µM.

And the TGI (ACHN renal)?
Its TGI is over 100 µM.

What about the TGI (HL-60(TB) leukemia) of the same compound?
Its TGI is over 100 µM.

And the TGI (SK-OV-3 ovarian)?
The TGI was over 100 µM.

And the TGI (786-0 renal)?
Its TGI is over 100 µM.

What about the TGI (MCF7 breast) of the same compound?
The TGI was over 100 µM.

And the TGI (SK-MEL-2 melanoma)?
Its TGI is over 100 µM.

What about the TGI (IGROV1 ovarian) of the same compound?
Its TGI is over 100 µM.

What about the TGI (HOP-62 NSCLC) of the same compound?
Its TGI is over 100 µM.

What about the TGI (HOP-92 NSCLC) of the same compound?
Its TGI is over 100 µM.

What about the TGI (SNB-75 CNS) of the same compound?
Its TGI is over 100 µM.

And the TGI (COLO 205 colon)?
Its TGI is over 100 µM.

What about the TGI (SK-MEL-5 melanoma) of the same compound?
Its TGI is over 100 µM.

And the TGI (SF-539 CNS)?
Its TGI is over 100 µM.

What about the TGI (HCT-116 colon) of the same compound?
The TGI was over 100 µM.

And the TGI (SNB-19 CNS)?
Its TGI is over 100 µM.
